For 32 molecules, IC50 results are on record in US20070219212A1, “Pyranouidole Derivatives and the Use Thereof for the Treatment of Hepatitis C Virus Infection or Disease” (priority 2004, published 2007).

In assay [1] the target is T1, NS5B from the BK strain (genotype 1b) (Hepatitis C virus genotype 1b, UniProt P26663).
T1 construct: NS5B from the BK strain (genotype 1b) is expressed in E coli as a protein in which the 21 C-terminal amino acids are replaced; made in house; host or cells: E. coli
Description: Hepatitis C polymerase (NS5B, BK strain) inhibition, radioactive filter assay. The settings on record: NS5B BK strain (genotype 1b). Type of assay: biochemical. Put shortly:
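E. coli-expressed C-terminally truncated His-tagged NS5B preincubated 15 min with compound at room temperature, then run 2 h at 22-25 °C on a hairpin-primed heteropolymeric RNA template (~3 nM) with radioactive nucleotides. EDTA stop; ~760 nt 33P product captured on filters, washed with phosphate buffer pH 7.0, scintillation counted.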

Assay [2] concerns the target BB7 RNA-dependent RNA polymerase hepatitis C virus protein (Con1 HCV sequence) (Hepatitis C virus genotype 1b, UniProt Q9WMX2). Kind of assay: Hepatitis C polymerase (BB7) inhibition. It is filed as biochemical. Put shortly:
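Con1 (BB7) replicon-derived NS5B polymerase preincubated with compound (15% DMSO) 15 min at room temperature, then RNA template (~3 nM pOF) and nucleotides added. Reaction run 2 h at 22-25° C., stopped with EDTA (85 mM final). ^33P-labelled product captured on filters, washed with 0.5 M sodium phosphate pH 7.0, scintillation counted.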

The mark [3] stands for this setting: BB7 (Con1) NS5B, read-out: BB7 IC50.

Like-named read-outs stand apart in the source and are kept apart here.

BB7 RNA-dependent RNA polymerase hepatitis C virus protein (Con1 HCV sequence), sequence (Q9WMX2 2420-3010): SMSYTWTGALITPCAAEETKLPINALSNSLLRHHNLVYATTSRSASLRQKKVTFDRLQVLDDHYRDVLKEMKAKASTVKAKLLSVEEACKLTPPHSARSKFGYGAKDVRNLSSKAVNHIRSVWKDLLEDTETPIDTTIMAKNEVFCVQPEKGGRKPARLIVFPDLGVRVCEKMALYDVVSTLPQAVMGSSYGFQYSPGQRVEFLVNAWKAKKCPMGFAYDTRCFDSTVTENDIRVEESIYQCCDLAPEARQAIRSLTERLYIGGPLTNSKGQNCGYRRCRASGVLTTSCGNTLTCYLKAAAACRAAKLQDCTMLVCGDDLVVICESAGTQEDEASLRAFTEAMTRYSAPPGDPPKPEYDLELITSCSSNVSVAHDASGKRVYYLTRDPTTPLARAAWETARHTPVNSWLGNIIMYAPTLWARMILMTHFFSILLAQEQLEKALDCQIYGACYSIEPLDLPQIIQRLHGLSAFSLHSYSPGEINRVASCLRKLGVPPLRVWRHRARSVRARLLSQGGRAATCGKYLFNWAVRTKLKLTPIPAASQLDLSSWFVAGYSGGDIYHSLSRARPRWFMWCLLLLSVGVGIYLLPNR
T1 sequence (P26663 2420-2989): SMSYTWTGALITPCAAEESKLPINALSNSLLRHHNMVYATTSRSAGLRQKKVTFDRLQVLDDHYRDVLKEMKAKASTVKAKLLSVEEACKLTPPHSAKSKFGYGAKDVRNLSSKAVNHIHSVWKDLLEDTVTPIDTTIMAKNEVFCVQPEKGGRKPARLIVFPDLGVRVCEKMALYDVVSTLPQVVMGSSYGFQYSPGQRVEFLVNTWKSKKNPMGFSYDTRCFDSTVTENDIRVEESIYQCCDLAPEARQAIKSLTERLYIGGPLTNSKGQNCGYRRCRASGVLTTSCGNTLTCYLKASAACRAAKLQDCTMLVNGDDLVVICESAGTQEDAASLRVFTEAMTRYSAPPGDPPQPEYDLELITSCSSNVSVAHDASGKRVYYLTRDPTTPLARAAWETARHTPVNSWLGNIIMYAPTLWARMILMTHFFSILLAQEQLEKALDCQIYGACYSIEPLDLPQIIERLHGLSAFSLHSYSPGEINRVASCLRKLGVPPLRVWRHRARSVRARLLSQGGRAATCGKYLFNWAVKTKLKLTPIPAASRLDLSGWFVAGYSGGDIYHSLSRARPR

As to `CCC[C@]1(CC(=O)O)OCCc2c1[nH]c1c(C)c(OCc3nsc(N(C)C)n3)cc(C#N)c21` [Example 30, (R)-[5-Cyano-7-(5-dimethylamino-[1,2,4]thiadiazol-3-ylmethoxy)-8-methyl-1-propyl-1,3,4,9-tetrahydro-pyrano[3,4-b]indol-1-yl]-acetic acid], the IC50 in assay [1] and in assay [2] was less than 500 nM in each case.

For `CCCC1(CC(=O)O)OCCc2c1[nH]c1c(C)c(OCc3c[nH]cn3)cc(C#N)c21` (stereo not shown) [Example 76], the IC50 in assay [1] and in assay [2] (setting [3]) was less than 500 nM throughout.

For the molecule `CCCOCc1cc(C#N)c2c3c([nH]c2c1C)C(CCC)(CC(=O)O)OCC3` (stereo not shown) [Example 4, (5-Cyano-8-methyl-7-propoxymethyl-1-propyl-1,3,4,9-tetrahydro-pyrano[3,4-b]indol-1-yl)-acetic acid], the IC50 in assay [1] was 500 to 5000 nM; in assay [2], less than 500 nM.

On to `CCCC1(CC(=O)O)OCCc2c1[nH]c1c(C)c(OCc3conc3C)cc(C#N)c21` (stereo not shown) [Example 77], for which the IC50 in assay [1] and in assay [2] was less than 500 nM throughout.

Turning to `CCCC1(CC(=O)O)OCCc2c1[nH]c1c(C)c(OCC(C)=NOCC)cc(C#N)c21` (stereo not shown) [Example 104], the IC50 in assay [1] and in assay [2] was less than 500 nM each time.

With `CCCC1(CC(=O)O)OCCc2c1[nH]c1c(C)c(OCC3CCN(S(C)(=O)=O)CC3)cc(C#N)c21` (stereo not shown) [Example 122], the IC50 in assay [1] and in assay [2] was less than 500 nM each time.

Regarding `CCCC1(CC(=O)O)OCCc2c1[nH]c1c(C)c(COCC)cc(C#N)c21` (stereo not shown) [Example 3, (5-Cyano-7-ethoxymethyl-8-methyl-1-propyl-1,3,4,9-tetrahydro-pyrano[3,4-b]indo-1-yl)-acetic acid], the IC50 was 500 to 5000 nM in assay [1] and less than 500 nM in assay [2].

Regarding `CCCC1(C(=O)O)OCCc2c1[nH]c1c(C)c(OCCOC)cc(C#N)c21` (stereo not shown) [Example 31, 5-Cyano-7-(2-methoxy-ethoxy)-8-methyl-1-propyl-1,3,4,9-tetrahydro-pyrano[3,4,-b]indole-1-carboxylic acid], the IC50 in assay [1] and in assay [2] was 500 to 5000 nM in each case.

For the molecule `CCCC1(CC(=O)O)OCCc2c1[nH]c1c(C)c(OCc3cc[nH]n3)cc(C#N)c21` (stereo not shown) [Example 83], the IC50 in assay [1] and in assay [2] was less than 500 nM in each case.

With `CCCC1(CC(=O)O)OCCc2c1[nH]c1c(C)c(O[C@@H]3CCOC3)cc(C#N)c21` (stereo partly shown) [Example 39], the IC50 in assay [1] and in assay [2] (setting [3]) was less than 500 nM throughout.

Take `CCCC1(CC(=O)O)OCCc2c1[nH]c1c(C)c(O[C@H]3CCOC3)cc(C#N)c21` (stereo partly shown) [Example 40]: the IC50 in assay [1] and in assay [2] was less than 500 nM each time.

In the case of `CCCC1(CC(=O)O)OCCc2c1[nH]c1c(C)c(OCCN3CCCC3)cc(C#N)c21` (stereo not shown) [Example 58], the IC50 in assay [1] and in assay [2] was 500 to 5000 nM throughout.

On to `CCC[C@]1(CC(=O)O)OCCc2c1[nH]c1c(C)c(OCCCOC)cc(C#N)c21` [Example 27, (R)-[5-Cyano-7-(3-methoxy-propoxy)-8-methyl-1-propyl-1,3,4,9-tetrahydro-pyrano[3,4-b]indol-1-yl]-acetic acid], for which the IC50 in assay [1] and in assay [2] was less than 500 nM each time.

With `CCCC1(CC(=O)O)OCCc2c1[nH]c1c(C)c(OCC(=O)NC)cc(C#N)c21` (stereo not shown) [Example 103], the half-inhibitory concentration (IC50) in assay [1] and in assay [2] was less than 500 nM in each case.

On to `CCCC1(CC(=O)O)OCCc2c1[nH]c1c(C)c(OCc3cccnc3)cc(C#N)c21` (stereo not shown) [Example 41], for which the IC50 in assay [1] and in assay [2] was less than 500 nM each time.

As for `CCCC1(CC(=O)O)OCCc2c1[nH]c1c(C)c(OCc3noc(C(C)(C)C)n3)cc(C#N)c21` (stereo not shown) [Example 88], the IC50 in assay [1] and in assay [2] was less than 500 nM each time.

As for `CCCC1(CC(=O)O)OCCc2c1[nH]c1c(C)c(OCC(C)=O)cc(C#N)c21` (stereo not shown) [Example 98], the IC50 in assay [1] was 500 to 5000 nM; in assay [2] it was less than 500 nM.

Regarding `CCCC1(CC(=O)O)OCCc2c1[nH]c1c(C)c(OCc3ccc(C(F)(F)F)nc3)cc(C#N)c21` (stereo not shown) [Example 73], the IC50 in assay [1] and in assay [2] was less than 500 nM throughout.

With `CCCC1(C(=O)O)OCCc2c1[nH]c1c(C)c(OCc3cc(C)on3)cc(C#N)c21` (stereo not shown) [Example 32, 5-Cyano-8-methyl-7-(5-methyl-isoxazol-3-ylmethoxy)-1-propyl-1,3,4,9-tetrahydro-pyrano[3,4,-b]indole-1-carboxylic acid], the concentration for half-maximal inhibition (IC50) in assay [1] and in assay [2] was less than 500 nM in each case.

As to `CCCC1(CC(=O)O)OCCc2c1[nH]c1c(C)c(OCc3ccnc(C(=O)O)c3)cc(C#N)c21` (stereo not shown) [Example 61], the IC50 in assay [1] and in assay [2] was less than 500 nM each time.

`CCCC1(CC(=O)O)OCCc2c1[nH]c1c(C)c(OC[C@@H](C)OC)cc(C#N)c21` (stereo partly shown) [Example 141]: the IC50 in assay [1] and in assay [2] was less than 500 nM each time.

In the case of `CCCC1(CC(=O)O)OCCc2c1[nH]c1c(C)c(COCc3ccc(C)cc3C)cc(C#N)c21` (stereo not shown) [Example 17, [5-Cyano-7-(2,4-dimethyl-benzyloxymethyl)-8-methyl-1-propyl-1,3,4,9-tetrahydro-pyrano[3,4-b]indol-1-yl]-acetic acid], the IC50 is 500 to 5000 nM in assay [1] and more than 5000 nM in assay [2].

As for `CCCC1(CC(=O)O)OCCc2c1[nH]c1c(C)c(OCOC)cc(C#N)c21` (stereo not shown) [Example 113], the IC50 in assay [1] and in assay [2] was less than 500 nM each time.

With `CCCC1(CC(=O)O)OCCc2c1[nH]c1c(C)c(OCc3c(C)noc3C)cc(C#N)c21` (stereo not shown) [Example 80], the IC50 in assay [1] and in assay [2] was less than 500 nM in each case.

With `CCCC1(CC(=O)O)OCCc2c1[nH]c1c(C)c(OCC3CCNCC3)cc(C#N)c21` (stereo not shown) [Example 74], the IC50 in assay [1] and in assay [2] was less than 500 nM each time.

Regarding `CCCC1(CC(=O)O)OCCc2c1[nH]c1c(C)c(OCc3ccnc(NC(C)=O)c3)cc(C#N)c21` (stereo not shown) [Example 93], the IC50 in assay [1] and in assay [2] was less than 500 nM each time.

In the case of `CCCC1(CC(=O)O)OCCc2c1[nH]c1c(C)c(OCC(C)O)cc(C#N)c21` (stereo not shown) [Example 102], the IC50 in assay [1] and in assay [2] was less than 500 nM throughout.

Turning to `CCCC1(CC(=O)O)OCCc2c1[nH]c1c(C)c(OCC3CC3)cc(C#N)c21` (stereo not shown) [Example 22, (5-Cyano-7-cyclopropylmethoxy-8-methyl-1-propyl-1,3,4,9-tetrahydro-pyrano[3,4-b]indol-1-yl)-acetic acid], the IC50 in assay [1] and in assay [2] was less than 500 nM in each case.

For the molecule `CCC[C@]1(CC(=O)O)OCCc2c1[nH]c1c(C)c(OCc3cc(C)n(C)n3)cc(C#N)c21` [Example 25, (R)-[5-Cyano-7-(1,5-dimethyl-1H-pyrazol-3-ylmethoxy)-8-methyl-1-propyl-1,3,4,9-tetrahydro-pyrano[3,4-b]indol-1-yl]-acetic acid], the IC50 in assay [1] and in assay [2] was less than 500 nM in each case.

In the case of “(7-Benzyloxymethyl-5-cyano-8-methyl-1-propyl-1,3,4,9-tetrahydro-pyrano[3,4-b]indol-1-yl)-acetic acid [Example 15]”, the IC50 in assay [1] and in assay [2] (setting [3]) was less than 500 nM each time.

For the molecule `CCCC1(CC(=O)O)OCCc2c1[nH]c1c(C)c(OCc3cc(Br)no3)cc(C#N)c21` (stereo not shown) [Example 81], the IC50 in assay [1] and in assay [2] was less than 500 nM throughout.

Turning to `CCCC1(CC(=O)O)OCCc2c1[nH]c1c(C)c(OCc3ccnc(C(N)=O)c3)cc(C#N)c21` (stereo not shown) [Example 65], the IC50 in assay [1] and in assay [2] was less than 500 nM each time.
